Source: patent publication US3987055A, “Azasteroids compounds and derivatives” (The Board of Regents for the Oklahoma Agricultural & …, priority 1974, dated 1976)
“And” between values parts separate entries of the source, which are not always exact repeats. Equal values may be shown once. “Also recorded” adds a separate entry of the source.

How the values were obtained:
[1] = cited from earlier work
[2] = cited from earlier work; remark: listed apart in the source
Bacillus subtilis W23 = assay: inhibition of growth of Bacillus subtilis W23 in growth medium; type: cell-based
Experimental: (§1) The hydroxybenzindazole (compound 2) delayed (inhibited) the initiation of growth of selected unrelated bacteria when incorporated in the growth medium. The inhibition was dependent on the concentration of the test compound and the nature of the organism. […] Pseudomonas fluorescens NND was not sensitive to the hydroxybenzindazole in the concentrations tested.
The influence of cell mass on the antimicrobial potential of the hydroxybenzindazole was determined using B. subtilis W23. […] Thus, a critical number of molecules must react with the cell to produce inhibition. Experiments were conducted to determine if Mg^+^+, which is an important component of cell membranes, affected the inhibition. Cells of B. subtilis W23 were exposed to 10^-^3 M MgCl2 simultaneously with the test compound or for as long as 15 minutes prior to addition of the hydroxybenzindazole.

Escherichia coli B = assay: inhibition of initiation of growth of Escherichia coli B; type: cell-based; conditions: E. coli B
Description: as §1

[3] = tested on: Pseudomonas fluorescens NND; assay: inhibition of growth of Pseudomonas fluorescens NND; type: cell-based; conditions: concentrations tested; P. fluorescens NND; listed as hydroxybenzindazole
Description: as §1

P. fluorescens NND = assay: lysis of cells of P. fluorescens NND; type: cell-based, Pseudomonas fluorescens NND
Experimental: The increased lytic rate was not observed when the benzindazole was added after the cells had reached the maximum stationary phase (10 hours); thus, the compounds must be present during active growth for the cells to show the lytic response. […] This is extremely important in controlling or destroying growth of undesirable cells since if the cells rupture they cannot possibly grow and divide at any future time.

B. subtilis W23 = assay: antimicrobial activity in combination with selected antibiotics; type: cell-based
Experimental: Several antibiotics act at the cell surface. The antimicrobial activity of the hydroxybenzindazole in combination with selected antibiotics was measured.
Both Polymyxin (Pfizer, Inc.) and Circulin (Upjohn Co.) are surface active compounds thought to cause disorganization of the cell membrane leading to a loss of intracellular components. The enhanced antimicrobial activity observed with the combination of hydroxybenzindazole and antibiotics denotes a more pronounced distortion in the cell surface. Thus, much lower concentrations of the compounds can be used in medicinal applications providing an opportunity for toxic compounds to have greater medicinal applicability and use.
Failure of the mixture of hydroxybenzindazole and chloramphenicol to show an enhanced inhibition of growth could be correlated with the internal site of action of chloramphenicol, which is blockage of the binding of the 30s and 50s ribosomal subunits.

cells [4] = assay: binding or adsorption to the cell; conditions: incubated with 20 μg
Description: (§2) Thus the compound can be used to destroy undesirable cells without damaging normal cells.

cells [5] = assay: uptake or incorporation of L-serine-3-14C or uracil-2-14C; type: cell-based; conditions: 60 μg/ml
Description: as §2

[6] = tested on: osmoplasts (osmotically sensitive cells) of B. subtilis W23; assay: lysis of osmoplasts of B. subtilis W23; type: cell-based; conditions: stabilized in 0.35 M sucrose
Description: as §2

[7] = effects on testis function: body, testis and seminal vesicle weight; type: in vivo, mice (ICR-Swiss adult male); conditions: average; 0.2 mg per day s.c., 10 days
Experimental: The compounds as shown in Table 7 were dissolved in a minimal amount of ethanol and diluted in sesame oil (1 mg/ml). After dilution, samples were stored at 5° C in the dark and flushed with N2 every 24 hours. The compounds were injected subcutaneously into adult male mice for a period of 10 days. Each mouse injected received a total dose of 2 mg over the 10 day period or 0.2 mg per day. The mice were random bred males of the ICR-Swiss strain and were used in the study when they reached 75±2 days of age. Mice were maintained in air-conditioned and light-controlled (14 hour light/24 hour) animal quarters and provided with lab food and water ad libitum. Animals were necropsied 24 hours after the last injection. Testes and seminal vesicles were excised, trimmed of adhering tissue and weighed fresh at the nearest one-tenth milligram.

rat testis tubules [8] = assay: glucose oxidation (glucose-U-14C) by rat testis tubules in vitro; type: cell-based
Experimental: (§3) For these investigations the compounds were diluted in a minimal amount of ethanol and further diluted in saline (0.85%) so that the final concentration was 1 mg/ml. The compounds were placed in solution and gassed under N2 and stored at 5° C until used 2 days later for the in vitro incubation studies. Details of the in vitro incubation procedures may be found in Endocrinology 89:791-800 (1971).
The effects of these compounds on glucose oxidation by testis tubules was examined by incubating about 200 mg of teased testis tubules from mature rats in a 25 ml Erlenmeyer flask containing 3 ml of Krebs Ringer bicarbonate buffer (pH 7.4), D-glucose-U-^14 C (0.5 μCi; 10mM) and 0.25 ml of the azasteroid (1 mg/ml) to be tested. The flasks were incubated for 2 hours at 33° C under 95% O2 :5% CO2. The reaction was terminated by adding 0.25 ml of 5 N H2 SO4. Carbon dioxide was trapped in 0.25 ml of hydroxide of Hyamine. The radioactivity present in the Hyamine was determined by liquid scintillation spectrometry. This table includes a detailed summary of the results obtained and an average for each compound. […] Thus, the compounds have potential for antifertility activity in the control of wild rodent populations and possibly stray animals such as dogs and cats.
CPM = counts per minute. Glucose-U-^14 C activity was 0.5 millicurie.
All compounds were tested in a concentration of 250 mg per flask.

rat testis tubules [9] = assay: lysine-U-14C incorporation into protein by rat testis tubules in vitro; type: cell-based
Experimental: as §3
The effects of the compounds on the incorporation of lysine -U-^14 C into trichloroacetic (TCA) precipitable protein of rat testes was investigated by incubating about 200 mg of teased testis tubules from mature rats in a 25 ml Erlenmeyer flask containing 3 ml of Krebs Ringer bicarbonate buffer (pH 7.4), L-lysine-U-^14 C (0.5 μCi; 0.1mM), glucose (10 mM) and 0.25 ml of the azasteroid to be tested. The flasks were incubated for 1 hour at 33° C under 95% O2 : 5% CO2 and the TCA precipitable protein was isolated and an aliquot used to measure radioactivity.
CPM = counts per minute. All compounds were tested in a concentration of […]

Bacillus subtilis = conditions: as low as; cited from earlier work
[10] = oral, rats; cited from earlier work
[11] = individual flask, 250 mg per flask (so in the source), 2 hours, 33° C
[12] = individual flask, 250 mg per flask (so in the source), 1 hour, 33° C

(3,2-c)-2'-phenylpyrazole of 9α-fluoro-6,16α-dimethyl-Δ^6 -hydrocortisone
anti-inflammatory potency relative to hydrocortisone [1]: over 2000 times

COc1ccc2c(c1)CC[C@@H]1[C@@H]2CC[C@]2(C)C(=O)NC[C@@H]12 [0-methyl ether of 16-azaestrone]
estrogenic activity relative to parent estrone [2]: less than 1.01%

Oc1ccc2c(c1)CCc1cn[nH]c1-2 [Compound 2, 4,5-Dihydro-1H-benz[g]indazol-7-ol]
growth inhibition at lower concentration (Bacillus subtilis W23; 46 μg/ml, B. subtilis W23): only slight inhibition | increased lag in the initiation of growth (Bacillus subtilis W23; 86 μg/ml, B. subtilis W23): approximately 3 hours | influence of Mg++ on the inhibition (Bacillus subtilis W23; 10^-3 M MgCl2, simultaneously or up to 15 minutes prior): did not influence the inhibition | influence of cell mass on extent of inhibition (Bacillus subtilis W23; B. subtilis W23, increasing inoculum cell mass): the extent of inhibition was diminished as the cell mass of the inoculum was increased | growth inhibition at lower concentration (Escherichia coli B; 46 μg/ml): only slight inhibition | increased lag in the initiation of growth (Escherichia coli B; 86 μg/ml): approximately 3 hours | sensitivity / influence on growth [3]: not sensitive; also recorded: did not influence the growth | dependence of extent of lysis on concentration (P. fluorescens NND; P. fluorescens NND): proportional to the benzindazole concentration | increased lytic rate when added after maximum stationary phase (P. fluorescens NND; added after 10 hours): not observed | cell population lysed (P. fluorescens NND; cells grown in presence of compound): approximately 95% | inhibition of growth, tested separately (B. subtilis W23; alone, B. subtilis W23): very slight inhibition of growth | enhanced inhibition in combination with chloramphenicol (B. subtilis W23; with chloramphenicol): enhanced inhibition was not observed | inhibition of growth in combination with penicillin (B. subtilis W23; with penicillin, B. subtilis W23): pronounced inhibition | amount bound or adsorbed to the cell (cells [4]): approximately 1 μg | inhibition of uptake or incorporation of L-serine-3-14C or uracil-2-14C (cells [5]): did not inhibit uptake or incorporation | lysis of osmoplasts [6]: did not produce lysis | Body Weight [7]: 35.7 g | Mg Testes Per g Body Wt. [7]: 6.73 Mg per g | Seminal Vesicle weight [7]: 87.3 mg | Testes Paired weight [7]: 242.0 mg | AVERAGE glucose oxidation (rat testis tubules [8]; average of flasks): 3,756 CPM/100 mg TISSUE | depression of glucose oxidation in vitro (rat testis tubules [8]; in words): depressed glucose oxidation in vitro more than compounds 4 c and 11b | GLUCOSE OXIDATION per 100 mg (rat testis tubules [8]; [11]): 3,354 CPM/100 mg and 4,159 CPM/100 mg | GLUCOSE OXIDATION per flask (rat testis tubules [8]; [11]): 6,876 CPM/FLASK and 8,557 CPM/FLASK | % DEVIATION FROM CONTROL, glucose oxidation (rat testis tubules [8]; versus saline, 120 min): -63.6% | AVERAGE OF TWO FLASK lysine incorporation (rat testis tubules [9]; average of two flasks): 814 CPM/100 mg tissue | protein synthesis by teased testis tubules (rat testis tubules [9]; in words): depress protein synthesis | lysine incorporation into protein per 100 mg (rat testis tubules [9]; [12]): 1,000 CPM/100 mg and 629 CPM/100 mg | lysine incorporation into protein per flask (rat testis tubules [9]; [12]): 2,000 CPM/FLASK and 1,200 CPM/FLASK

CC(C)CCC[C@@H](C)[C@H]1CC[C@H]2[C@@H]3CC=C4N(CC[N+](C)(C)C)C(=O)CC[C@]4(C)[C@H]3CC[C@]12C [4-Dimethylaminoethyl-4-aza-5-cholesten-3-one methiodide]
concentration that irreversibly inhibits growth of Bacillus subtilis cultures (Bacillus subtilis): 1 µg/mL

C[C@]12Cc3cn[nH]c3C[C@@H]1CC[C@@H]1[C@@H]2CC[C@@]2(C)[C@H]1CC[C@]2(C)O [17-Hydroxy-17 α-methylandrostano[3,2]-μ pyrazole]
antiovulatory activity relative to norethisterone [10]: one-fifth of that observed for norethisterone
